This note sets out measurements from PubChem BioAssay AID2202554 (NIEHS Division of Translational Toxicology (DTT)).

Results filed as inconclusive are left out. Active and inactive are the calls of the source. The rule behind the calls is not given here.

The series relates to S. typhimurium/E. coli reverse mutation, colony counts. Kind of series: Bacterial reverse mutation test (aka Ames test) summary data. An outline of the steps:
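Revertant colony counts on plates, compared with untreated controls, after about two days of growth. Exposure with or without liver S9 (rat/hamster/mouse), dose range per strain, 20-min 37° C preincubation or direct plate incorporation. Strains: his⁻ Salmonella, trp⁻ E. coli WP2 uvrA pKM101.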
For `C=CC(=O)OCCOCCOC(=O)C=C`, the outcome is “inactive; negative”.

On to `[Cd+2].[Cl-].[Cl-]`, for which the outcome was “inactive; negative”.

Turning to `COc1ccc(OC)c(N=Nc2c(O)ccc3ccccc23)c1`, the outcome was “active; positive”.

Turning to `Nc1c(N=Nc2ccc([N+](=O)[O-])cc2)c(S(=O)(=O)O)cc2cc(S(=O)(=O)O)c(N=Nc3ccccc3)c(O)c12`, the outcome is “active; positive”.

Consider `Cc1cc(C(=O)O)ccc1[N+](=O)[O-]`, for which the outcome is “active; positive”.

Regarding `O=C(Nc1ccc(Br)cc1)c1cc(Br)cc(Br)c1O`, the outcome is “inactive; negative”.

As for `COC(=O)Nc1nc2ccccc2[nH]1`, the outcome was “active; positive”.

In the case of `COC(=O)C1CCC(C)CC1` (configuration not stated), the outcome was “inactive; negative”.

Regarding `C=CC(=O)OCCN(C)C`, the outcome was “inactive; negative”.

For `CCOC(=O)CC(SP(=S)(OC)OC)C(=O)OCC` (configuration not stated), the outcome is “inactive; negative”.

On to `Cc1ccccc1C(=O)O`, for which the outcome was “inactive; negative”.

As for `Cc1cccc(O)c1`, the outcome was “inactive; negative”.

Take `CC(C)CC(=O)CC(C)C`: the outcome was “inactive; negative”.

For `O=C(O)c1cc(=O)[nH]c(=O)[nH]1`, the outcome was “inactive; negative”.

For `FC(Cl)(Cl)Cl`, the outcome is “inactive; negative”.

Regarding `CCCc1cc(=O)[nH]c(=S)[nH]1`, the outcome is “inactive; negative”.

`[Na+]`: the outcome was “inactive; negative”.

`O=C1C=CCCC1`: the outcome is “inactive; negative”.

For `CC(C)CON=O`, the outcome was “active; positive”.

Consider `COc1ccccc1C=CC=O`, for which the outcome is “active; weakly positive”.

With `CCCCN`, the outcome was “inactive; negative”.

With `CCCC(O)C(CC)CO` (configuration not stated), the outcome is “inactive; negative”.

As to `COC(C)(C)C`, the outcome is “inactive; negative”.

Turning to `CCN(CC)C(=O)c1cccc(C)c1`, the outcome is “inactive; negative”.

`O=C(O)CCCCC1CCSS1` (configuration not stated): the outcome is “inactive; negative”.

As for `Nc1c(Cl)c(Cl)nc(C(=O)O)c1Cl`, the outcome was “inactive; negative”.

In the case of `Oc1ccc(Cl)c(Cl)c1`, the outcome was “inactive; negative”.

As to `O=C(O)C=Cc1ccc(O)c(O)c1`, the outcome is “inactive; negative”.

In the case of `NC(Cc1ccc(F)cc1)C(=O)O` (configuration not stated), the outcome is “inactive; negative”.

With `CC1=C(/C=C/C(C)=C/C=C/C(C)=C/CO)C(C)(C)CCC1`, the outcome was “active; weakly positive”.

In the case of `O=CC=Cc1ccco1`, the outcome was “inactive; negative”.

Turning to `O=C(O)CN(CCN(CC(=O)O)CC(=O)O)CC(=O)O`, the outcome was “inactive; negative”.

Take `Nc1cc([N+](=O)[O-])cc(Cl)c1O`: the outcome is “active; positive”.

For the compound `CC1CCC(C(C)CS)CC1S` (configuration not stated), the outcome is “inactive; negative”.

`O=c1cc(-c2ccccc2)oc2ccc3ccccc3c12`: the outcome is “inactive; negative”.

For the compound `CCCCCCCCCCCC[S][Sn]([CH2]CCC)([CH2]CCC)[S]CCCCCCCCCCCC`, the outcome is “inactive; negative”.

As to `CC(C)CCC(C)Nc1ccc(NC(C)CCC(C)C)cc1` (configuration not stated), the outcome was “inactive; negative”.

With `Nc1ccc(S(=O)(=O)O)cc1`, the outcome is “inactive; negative”.

Regarding `CCC1(c2ccccc2)C(=O)NC(=O)NC1=O`, the outcome was “active; weakly positive”.

Turning to `[O]=[Zr]`, the outcome is “inactive; negative”.

Take `Cc1ccc(C#N)cc1`: the outcome was “inactive; negative”.

In the case of `Cc1cccc(O)c1C`, the outcome is “inactive; negative”.

Consider `CN(C)CCN(Cc1ccsc1)c1ccccn1`, for which the outcome was “inactive; negative”.

Take `CCCCCCC[CH2][Sn]1([CH2]CCCCCCC)[O]C(=O)C=CC(=O)[O]1`: the outcome is “inactive; negative”.

`O=C1C(c2[nH]c3ccc(S(=O)(=O)O)cc3c2O)=Nc2ccc(S(=O)(=O)O)cc21`: the outcome was “active; positive”.

Regarding `Oc1c(I)cc(Cl)c2cccnc12`, the outcome was “inactive; negative”.

As to `N[C@@H](Cc1c[nH]c2ccc(O)cc12)C(=O)O`, the outcome was “inactive; negative”.

As to `O=C([O-])c1ccccc1C1c2ccc([O-])c(Br)c2Oc2c1ccc(O)c2Br.[Zr+2]`, the outcome is “inactive; negative”.

Turning to `O=C(CCl)c1ccc(Cl)cc1Cl`, the outcome is “active; positive”.

With `ClC=CC[N+]12CN3CN(CN(C3)C1)C2`, the outcome was “active; weakly positive”.

With `c1ccc(N(c2ccccc2)c2ccccc2)cc1`, the outcome is “inactive; negative”.

On to `c1ccc(N=Nc2ccccc2)cc1`, for which the outcome was “active; positive”.

As to `CCCCCCCCCC=CCC1CC(=O)OC1=O` (configuration not stated), the outcome is “inactive; negative”.

In the case of `CCOC(=O)c1ccccc1C(=O)OCC`, the outcome was “inactive; negative”.

On to `Oc1cc(Cl)ccc1Cl`, for which the outcome is “inactive; negative”.

In the case of `c1ccc(NNc2ccccc2)cc1`, the outcome was “active; positive”.

With `CCCOC(=O)c1cc(O)c(O)c(O)c1`, the outcome is “inactive; negative”.

Regarding `O=C1CN(N=Cc2ccc([N+](=O)[O-])o2)C(=O)N1`, the outcome was “active; positive”.

On to `C=CC(=O)OCCBr`, for which the outcome was “active; positive”.

On to `Nc1ccc2cc3ccccc3cc2c1`, for which the outcome is “active; positive”.

Take `O=[N+]([O-])c1ccc(Nc2ccc(O)cc2)c([N+](=O)[O-])c1`: the outcome was “active; positive”.

Consider `COC(C)=O`, for which the outcome is “inactive; negative”.

Take `OC[C@@H](O)[C@@H](O)[C@H](O)[C@H](O)CO`: the outcome was “inactive; negative”.

`CCCCCCCCCCCCCCCCN`: the outcome was “inactive; negative”.

With `CCN(C(=O)N(CC)c1ccccc1)c1ccccc1`, the outcome was “inactive; negative”.

As to `Cl[C@@H]1C2(Cl)C3C4[C@@H]5O[C@@H]5[C@H]5C3[C@@](Cl)(C2(Cl)Cl)[C@]1(Cl)[C@@H]45` (some centres not stated), the outcome was “active; positive”.

Consider `ClNc1nc(NCl)nc(NCl)n1`, for which the outcome is “inactive; negative”.

With `NC(=O)N=NC(N)=O`, the outcome was “active; positive”.

For the compound `CS(C)=O`, the outcome is “inactive; negative”.

For the compound `Clc1ccc2ccccc2c1`, the outcome is “inactive; negative”.

Regarding `OCC(Br)=C(Br)CO`, the outcome was “active; positive”.

Consider `CN(C)C(=O)Nc1cccc(C(F)(F)F)c1`, for which the outcome was “inactive; negative”.

Turning to `N#CCC#N`, the outcome is “inactive; negative”.

For `Cc1ccc([N+](=O)[O-])c(N)c1`, the outcome is “inactive; negative”.

For `O=S(=O)(O)c1ccc(N=Nc2cc(S(=O)(=O)O)c3ccccc3c2O)c2ccccc12`, the outcome was “inactive; negative”.

On to `NCP(=O)(O)O`, for which the outcome is “inactive; negative”.

For `COc1ccc(N=[N+]([O-])c2ccc(OC)cc2)cc1`, the outcome was “active; positive”.

In the case of `CCC(Cl)[N+](=O)[O-]` (configuration not stated), the outcome is “active; positive”.

Regarding `ClC(Cl)(Cl)Cl`, the outcome is “inactive; negative”.

Regarding `Nc1cc(C(=O)O)c(O)c(S(=O)(=O)O)c1`, the outcome is “inactive; negative”.

For the compound `[Cl][In]([Cl])[Cl]`, the outcome was “inactive; negative”.

`CC(N)=S`: the outcome was “inactive; negative”.

For `CCCCC=O`, the outcome was “inactive; negative”.

In the case of `Cc1cc(N=Nc2c(O)ccc3ccccc23)c(S(=O)(=O)O)cc1Cl`, the outcome was “active; weakly positive”.

In the case of `Cc1ccc(N)cc1C`, the outcome was “active; positive”.

As for `CCCCCCC(=O)OCC`, the outcome is “inactive; negative”.

Consider `C=CC(=O)OCC(C)C`, for which the outcome was “inactive; negative”.

In the case of `Oc1ccccc1`, the outcome is “inactive; negative”.

Turning to `CC(=O)Nc1ccccc1C`, the outcome was “active; positive”.

With `[Cl-].[Cl-].[Hg+2]`, the outcome is “inactive; negative”.

With `CNc1ccc(N(CCO)CCO)cc1[N+](=O)[O-]`, the outcome is “active; positive”.

For the compound `Cc1ccccc1C`, the outcome was “inactive; negative”.

Regarding `O=Nc1ccc(O)cc1`, the outcome is “active; weakly positive”.

As to `N#CSCSC#N`, the outcome was “inactive; negative”.

As for `CC(=O)Nc1ccccc1N`, the outcome is “active; positive”.

As to `CN(C)C`, the outcome was “inactive; negative”.

Take `Cc1ccc2cccnc2c1`: the outcome is “active; positive”.

Turning to `c1cc2c3c(c1)ccc1cccc(c13)C2`, the outcome was “active; positive”.

Take `CCCCN(CC)CC`: the outcome was “inactive; negative”.

With `O=C(CO)CO`, the outcome was “active; positive”.

For `Nc1ccccc1[N+](=O)[O-]`, the outcome was “inactive; negative”.

`O=[N+]([O-])c1ccccc1Nc1ccccc1`: the outcome is “inactive; negative”.

Regarding `CC(=O)OO`, the outcome was “inactive; negative”.

Regarding `N#CCc1ccccc1`, the outcome is “inactive; negative”.

`Nc1ccn([C@H]2CC[C@@H](CO)O2)c(=O)n1`: the outcome was “active; weakly positive”.

On to `Nc1cc(S(=O)(=O)[O-])cc2cc(S(=O)(=O)[O-])c(N=Nc3ccc(-c4ccc(N=Nc5c(S(=O)(=O)[O-])cc6cc(S(=O)(=O)[O-])cc(N)c6c5[O-])c([O-])c4)cc3[O-])c([O-])c12.[Cu+2].[Cu+2].[Na+].[Na+].[Na+].[Na+]`, for which the outcome is “inactive; negative”.

In the case of `CC(=O)CC(=O)N(C)C`, the outcome is “inactive; negative”.

As to `O=CC=O`, the outcome was “active; positive”.

Regarding `O=P(O)(O)Oc1c[nH]c2ccccc12`, the outcome was “active; positive”.

As for `Nc1nc2ccccc2[nH]1`, the outcome was “inactive; negative”.

`C=CCCC#N`: the outcome is “inactive; negative”.

Regarding `CCOc1ccc2c(c1)C(C)=CC(C)(C)N2`, the outcome is “inactive; negative”.
